According to the OPERA property sets (Mansouri et al. 2018):

Structure (SMILES)	melting point	boiling point	log10 vapour pressure (mmHg)	other results
NS(=O)(=O)c1ccc(SCCCO)c(F)c1	110 °C			
C/C(Cl)=C/C(=O)O	61 °C	195 °C		
Cc1cc(C)nc(NS(=O)(=O)c2ccc(N)cc2)n1	198 °C			
O=c1cccc[nH]1	108 °C	280 °C		ready biodegradability: readily biodegradable
CCCCCCCCCCCCCCCCCC(=O)N(CCO)CCO				ready biodegradability: readily biodegradable
NCCNCCNCCN	12 °C	266 °C		ready biodegradability: not readily biodegradable
Cc1csc(N)n1	45.5 °C			
NNC(N)=O	96 °C			
O=C(NO)c1ccccc1O	168 °C			
c1ccc(-c2ccccn2)nc1	72 °C	274 °C		log10 Koc (L/kg): 1.6
C[C@]12CC[C@@H]3c4ccc(OC(=O)N(CCCl)CCCl)cc4CC[C@H]3[C@@H]1CC[C@@H]2O	104 °C			
C#CCBr		89 °C		log10 Henry constant (atm·m³/mol): -2.95
CCOC(C)OCC	-100 °C	102 °C	1.44	
[N-]=[N+]=Nc1ccc(Br)cc1	20 °C			
O=C(Cl)c1ccc(Br)cc1	42 °C	246 °C		
CC(=O)c1cccc(C#N)c1	99 °C			
CN(CC(=O)O)N=O	66.5 °C			
Nc1nc(N)nc(NC2CC2)n1	225 °C		-8.47	log10 Koc (L/kg): 2.3
COP(=S)(Oc1cc(Cl)c(Br)cc1Cl)c1ccccc1 (stereo not given)	70.4 °C		-7.64	log10 Koc (L/kg): 4.5; log10 BCF (fish): 3.78; log10 biotransformation half-life (days) (fish): 1.26
COP(=S)(OC)SCSc1ccc(Cl)cc1				log10 Koc (L/kg): 4.67
Cc1ccno1		122 °C		

Structure (SMILES)	melting point	boiling point	log10 vapour pressure (mmHg)	other results
C=CC=C	-109 °C	-4.4 °C	3.32	
CC1OC(C)OC(C)OC(C)O1 (stereo not given)				log10 Koc (L/kg): 2.38; ready biodegradability: not readily biodegradable
CC(=O)CC(c1ccccc1)c1c(O)c2ccccc2oc1=O (stereo not given)			-6.94	log10 Koc (L/kg): 2.96
C=C(F)F	-144 °C	-85.7 °C	4.48	
CC(=O)CCC(=O)OC(C)C		209 °C		
CC(C)Nc1nc(Cl)nc(NC2CC2)n1	167 °C		-6.52	
CC(C)C1CC=C(C=O)CC1 (stereo not given)		223 °C		
CCC=CC(C)=O		140 °C		
CCCCCCCCCCCCCOC(=O)CCCCC(=O)OCCCCCCCCCCCCC				log10 biotransformation half-life (days) (fish): -0.43
Clc1cccnc1Cl	66 °C			
CCC(O)(COC(N)=O)c1ccccc1 (stereo not given)	55 °C			
CCCCOCCOCCOC(=O)CCCCC(=O)OCCOCCOCCCC	-47 °C			ready biodegradability: readily biodegradable
ClC1=C(Cl)C2(Cl)C3C4C=CC(C4)C3C1(Cl)C2(Cl)Cl (stereo not given)				ready biodegradability: not readily biodegradable
COc1ccc2c(c1)C(=O)c1ccccc1C2=O			-10.2	
O=C(O)C(Cc1ccccc1)Cc1ccccc1	90 °C			
FC1C(F)(F)C(F)(F)C(F)(F)C(F)(F)C1(F)F		62 °C		
CC(C)CB(CC(C)C)CC(C)C	-88 °C	188 °C		
CCO[Si](OCC)(OCC)OCC	-82.5 °C	169 °C	0.275	
FC(F)=C(F)F	-142 °C	-75.9 °C	4.39	
Clc1cc(Cl)c2ccccc2n1	67.5 °C	281 °C		
CCC(CC)OC(C)=O		133 °C		

Structure (SMILES)	melting point	boiling point	log10 vapour pressure (mmHg)	other results
O=C(O)C(F)(F)C(F)F		134 °C		
C=CC	-185 °C	-48 °C	3.94	log10 Henry constant (atm·m³/mol): -0.708
Clc1ccc2cccc(Cl)c2c1	63.5 °C	286 °C		
CCC(C)CCC(C)O (stereo not given)	-61 °C	170 °C		
Cc1ccc(C)c(O)c1	74.8 °C	211 °C	-0.807	log10 Henry constant (atm·m³/mol): -5.95; ready biodegradability: not readily biodegradable
OCCNCCO	28 °C	269 °C	-3.55	log10 Koc (L/kg): 0.6; ready biodegradability: readily biodegradable
O=[N+]([O-])CCO	-80 °C	194 °C		
CCC(C)(C)I		124 °C		
CCOC(C)(C)CC		102 °C	1.7	
FC(F)OC(F)C(F)(F)F (stereo not given)		23.5 °C	2.82	
CCCC(=O)O[C@]1(C(=O)CCl)[C@@H](C)C[C@H]2[C@@H]3CCC4=CC(=O)C=C[C@]4(C)[C@@]3(F)C(=O)C[C@@]21C	95 °C			
CCCCNC(=O)NS(=O)(=O)c1ccccc1	131 °C			
O=C(O)c1cc(S(=O)(=O)O)ccc1O	120 °C			
OCC#CCO	50 °C	238 °C	-3.25	
CCOC(=O)C1(S(=O)(=O)c2ccc(C)cc2)CC1	75.5 °C			
C[Si]1(C)O[Si](C)(C)O[Si](C)(C)O[Si](C)(C)O[Si](C)(C)O[Si](C)(C)O[Si](C)(C)O[Si](C)(C)O[Si](C)(C)O1			-4.75	
CC(=O)N(c1ccccc1)c1ccccc1	103 °C			
CC[Si](F)(CC)CC		110 °C	1.57	
O=C(O)C1CCC1	-2 °C	190 °C		
CC(=O)C(C)(C)O		140 °C	0.792	
CCN(CC)CCNc1ccc(C)c2sc3ccccc3c(=O)c12.Cl	196 °C			
